Results reported in ChEMBL document CHEMBL3351921, “Structure-activity relationships (SAR) and structure-kinetic relationships (SKR) of pyrrolopiperidinone acetic acids as CRTh2 antagonists” (Bioorg Med Chem Lett, 2014).

How the values were obtained:
[1] = target: T1, Thromboxane A2 receptor (Homo sapiens) (UniProt P21731); assay: Inhibition of at prostanoid TP receptor (unknown origin) at 10 uM
T1 sequence (whole entry): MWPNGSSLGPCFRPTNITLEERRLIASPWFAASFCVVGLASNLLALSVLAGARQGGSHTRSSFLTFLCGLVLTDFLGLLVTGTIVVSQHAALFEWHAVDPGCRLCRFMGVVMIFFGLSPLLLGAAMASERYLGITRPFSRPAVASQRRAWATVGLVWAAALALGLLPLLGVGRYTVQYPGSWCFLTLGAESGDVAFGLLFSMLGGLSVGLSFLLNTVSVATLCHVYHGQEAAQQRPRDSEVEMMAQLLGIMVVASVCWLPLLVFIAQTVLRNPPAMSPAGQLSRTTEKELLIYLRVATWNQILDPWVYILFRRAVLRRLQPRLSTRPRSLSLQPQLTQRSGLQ

[2] = Dissociation constant, pKa of the compound by potentiometric method; format: physicochemical
[3] = target: T2, Prostaglandin D2 receptor 2 (Homo sapiens) (UniProt Q9Y5Y4); conditions: CHO.K1
T2 sequence (whole entry): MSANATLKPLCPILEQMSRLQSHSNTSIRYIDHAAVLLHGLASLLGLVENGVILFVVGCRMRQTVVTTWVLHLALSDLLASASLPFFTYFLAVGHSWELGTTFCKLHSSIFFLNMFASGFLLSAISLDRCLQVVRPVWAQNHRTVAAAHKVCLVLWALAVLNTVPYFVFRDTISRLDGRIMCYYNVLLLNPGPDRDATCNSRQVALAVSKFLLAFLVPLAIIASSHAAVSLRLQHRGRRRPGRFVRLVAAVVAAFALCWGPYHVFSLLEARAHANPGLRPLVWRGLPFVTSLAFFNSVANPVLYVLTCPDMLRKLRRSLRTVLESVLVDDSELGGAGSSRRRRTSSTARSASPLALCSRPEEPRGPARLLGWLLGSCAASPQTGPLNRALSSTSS
Description: Antagonist activity at CRTh2 (unknown origin) stably expressed in PGD2-stimulated CHO.K1 cells assessed as dissociation half-life at 5 to 10 times IC50 after 2 hrs by radio-labelled [35S]-GTPgammaS binding assay

[4] = target: T3, Prostaglandin D2 receptor (Homo sapiens) (UniProt Q13258); assay: Inhibition of at prostanoid DP1 receptor (unknown origin) at 10 uM
T3 sequence (whole entry): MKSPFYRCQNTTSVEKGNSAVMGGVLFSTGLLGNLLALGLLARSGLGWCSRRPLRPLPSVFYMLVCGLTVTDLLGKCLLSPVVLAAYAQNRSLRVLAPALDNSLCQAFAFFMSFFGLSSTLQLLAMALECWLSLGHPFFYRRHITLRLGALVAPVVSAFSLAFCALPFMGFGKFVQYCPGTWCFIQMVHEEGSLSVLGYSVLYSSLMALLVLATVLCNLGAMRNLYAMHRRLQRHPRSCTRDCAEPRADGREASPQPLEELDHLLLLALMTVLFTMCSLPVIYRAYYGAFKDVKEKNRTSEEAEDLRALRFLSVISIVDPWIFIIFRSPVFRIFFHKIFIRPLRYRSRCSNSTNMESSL

[5] = target: T4, Prostaglandin D2 receptor 2 (Homo sapiens, UniProt Q9Y5Y4); assay: Antagonist activity at CRTh2 (unknown origin) stably expressed in PGD2-stimulated CHO.K1 cells preincubated for 1 hr by radio-labelled [35S]-GTPgammaS binding assay; format: functional, cell-based
T4 sequence (Q9Y5Y4 whole entry): T2 sequence (whole entry)

[6] = Apparent permeability across apical to basolateral side of human Caco2 cells at pH 7.4; format: ADME, cell-based; conditions: Caco-2, pH 7.4
[7] = AUC (0 to infinity) in rat at 10 mg/kg, po; format: ADME, organism-based; set-up: time infinity, dose 10 mg/kg, route oral; conditions: plasma
[8] = Cmax in rat at 1 mg/kg, iv; format: ADME, organism-based; set-up: dose 1 mg/kg, route intravenous; conditions: in vivo
[9] = Clearance in rat at 1 mg/kg, iv; format: ADME, organism-based; set-up: dose 1 mg/kg, route intravenous; conditions: in vivo
[10] = Volume of distribution at steady state in rat at 1 mg/kg, iv; format: ADME, organism-based; set-up: dose 1 mg/kg, route intravenous; conditions: in vivo, read-out: Vdss
[11] = Terminal half life in rat at 10 mg/kg, po; format: ADME, organism-based; set-up: dose 10 mg/kg, route oral; conditions: in vivo, read-out: beta t1/2 (converted)
[12] = Cmax in rat at 10 mg/kg, po; format: ADME, organism-based; set-up: dose 10 mg/kg, route oral; conditions: in vivo
[13] = Oral bioavailability in rat at 10 mg/kg; format: ADME, organism-based; conditions: in vivo
[14] = AUC (0 to infinity) in rat at 1 mg/kg, iv; format: ADME, organism-based; set-up: time infinity, dose 1 mg/kg, route intravenous; conditions: plasma
[15] = Terminal half life in rat at 1 mg/kg, iv; format: ADME, organism-based; set-up: dose 1 mg/kg, route intravenous; conditions: in vivo, read-out: beta t1/2 (converted)
[16] = target: T4, Prostaglandin D2 receptor 2; assay: Antagonist activity at CRTh2 (unknown origin) stably expressed in PGD2-stimulated CHO.K1 cells preincubated for 30 mins by radio-labelled [35S]-GTPgammaS binding assay; format: functional, cell-based
[17] = target: T4, Prostaglandin D2 receptor 2; assay: Antagonist activity at CRTh2 (unknown origin) stably expressed in CHO.K1 cells co-mixing the compound and PGD2 by radio-labelled [35S]-GTPgammaS binding assay; format: functional, cell-based
[18] = target: T4, Prostaglandin D2 receptor 2; assay: Antagonist activity at CRTh2 (unknown origin) stably expressed in PGD2-stimulated CHO.K1 cells preincubated for 120 mins by radio-labelled [35S]-GTPgammaS binding assay; format: functional, cell-based
[19] = target: T4, Prostaglandin D2 receptor 2; assay: Antagonist activity at CRTh2 (unknown origin) stably expressed in PGD2-stimulated CHO.K1 cells preincubated for 15 mins by radio-labelled [35S]-GTPgammaS binding assay; format: functional, cell-based
[20] = target: T4, Prostaglandin D2 receptor 2; assay: Antagonist activity at CRTh2 (unknown origin) stably expressed in PGD2-stimulated CHO.K1 cells preincubated for 60 mins by radio-labelled [35S]-GTPgammaS binding assay; format: functional, cell-based
[21] = target: T4, Prostaglandin D2 receptor 2; assay: Antagonist activity at CRTh2 (unknown origin) stably expressed in PGD2-stimulated CHO.K1 cells preincubated for 180 mins by radio-labelled [35S]-GTPgammaS binding assay; format: functional, cell-based

SMILES | T1/2 [3] [h] | IC50 [5] [nM] | also measured
Cc1c(Cc2ccccc2S(=O)(=O)c2cccc(Cl)c2)c2c(n1CC(=O)O)CCNC2=O | 1.2 |  | inhibition [1]: < 30%; pKa [2]: 3.1; inhibition [4]: < 30%
Cc1c(Cc2ccccc2S(=O)(=O)c2ccccc2)c2c(n1[C@H](C)C(=O)O)CCNC2=O |  | 430 | 
Cc1c(Cc2cc(Br)ccc2S(=O)(=O)c2ccccc2)c2c(n1CC(=O)O)CCNC2=O | 5.7 |  | 
Cc1c(Cc2cc(F)ccc2S(=O)(=O)c2ccccc2)c2c(n1CC(=O)O)CCNC2=O | 1.7 |  | 
Cc1c(Cc2ccccc2S(=O)(=O)c2ccccc2)c2c(n1CC(=O)O)CCN(C(C)C(F)(F)F)C2=O (centres undefined) | 2.1 | 6 | Papp A→B [6]: 0.6 ×10⁻⁶ cm/s
Cc1c(Cc2ccccc2S(=O)(=O)c2ccccc2)c2c(=O)[nH]ccc2n1CC(=O)O | 1.3 |  | Papp A→B [6]: 0.1 ×10⁻⁶ cm/s
Cc1c(Cc2cc(C#N)ccc2S(=O)(=O)c2ccccc2)c2c(n1CC(=O)O)CCNC2=O | 0.6 | 28 | 
Cc1c(Cc2ccc(C(F)(F)F)cc2S(=O)(=O)c2ccccc2)c2c(n1CC(=O)O)CCNC2=O | 0.9 |  | inhibition [1]: < 30%; inhibition [4]: < 30%
COc1ccc(S(=O)(=O)c2ccc(F)cc2)c(Cc2c3c(n(CC(=O)O)c2C)CC(C)(C)NC3=O)c1 | 20 | 5 | 
COc1cccc(S(=O)(=O)c2ccccc2)c1Cc1c2c(n(CC(=O)O)c1C)CCNC2=O |  | 4500 | 
Cc1c(Cc2ccccc2S(=O)(=O)c2ccc(Cl)cc2)c2c(n1CC(=O)O)CCNC2=O | 1.2 | 8.5 | 
CCS(=O)(=O)c1ccccc1Cc1c2c(n(CC(=O)O)c1C)CCNC2=O |  | 550 | 
Cc1c(Cc2ccccc2S(=O)(=O)c2ccccc2)c2c(n1[C@@H](C)C(=O)O)CCNC2=O |  | 91 | 
COC(=O)c1ccc(Cc2c3c(n(CC(=O)O)c2C)CCNC3=O)c(S(=O)(=O)c2ccccc2)c1 | 1.8 |  | 
Cc1c(Cc2ccccc2S(=O)(=O)c2ccccc2)c2c(=O)n(C)ccc2n1CC(=O)O | 8 |  | inhibition [1]: < 30%; Papp A→B [6]: 0.1 ×10⁻⁶ cm/s; inhibition [4]: < 30%
Cc1c(Cc2ccccc2S(=O)(=O)c2ccccc2)c2c(n1CC(=O)O)CCN(C(C)C)C2=O | 2.6 | 9 | pKa [2]: 2.9
CCN(Cc1ccccc1Cc1c2c(n(CC(=O)O)c1C)CCNC2=O)C(=O)C1CC1 |  | 240 | 
Cc1c(Cc2ccccc2S(=O)(=O)N(C)Cc2ccccc2)c2c(n1CC(=O)O)CCNC2=O | 0.6 | 26 | 
Cc1c(Cc2ccccc2S(=O)(=O)c2ccc(F)cc2)c2c(n1CC(=O)O)CCNC2=O | 3.3 | 3.3 | AUC(0-inf) [7]: 380 ng·h/mL; Cmax [8]: 5740 ng/mL; inhibition [1]: < 30%; clearance [9]: 6.8 mL/min/kg; Vd [10]: 0.19 L/kg; half-life [11]: 5.6 h; Cmax [12]: 102 ng/mL; bioavailability [13]: 1.5%; inhibition [4]: < 30%; AUC(0-inf) [14]: 2460 ng·h/mL; half-life [15]: 2.2 h
COc1cccc(Cc2c3c(n(CC(=O)O)c2C)CCNC3=O)c1S(=O)(=O)c1ccccc1 | 0.4 |  | 
CNC(=O)c1cccc(S(=O)(=O)c2ccccc2Cc2c3c(n(CC(=O)O)c2C)CCNC3=O)c1 |  | 240 | 
Cc1c(Cc2ccccc2S(=O)(=O)c2ccccc2)c2c(n1CC(=O)O)CCN(Cc1ccccc1)C2=O | 6.7 |  | inhibition [1]: < 30%; pKa [2]: 3.3; inhibition [4]: < 30%
COc1ccc(S(=O)(=O)c2ccc(F)cc2)c(Cc2c3c(n(CC(=O)O)c2C)CCNC3=O)c1 | 23 | 7.1 | AUC(0-inf) [7]: 76 ng·h/mL; IC50 [16]: 4.1 nM; IC50 [17]: 10 nM; IC50 [18]: 2.4 nM; Cmax [8]: 1960 ng/mL; inhibition [1]: < 30%; pKa [2]: 3.1; IC50 [19]: 6.9 nM; clearance [9]: 27 mL/min/kg; Vd [10]: 0.31 L/kg; half-life [11]: 2.2 h; Cmax [12]: 36 ng/mL; bioavailability [13]: 1.2%; IC50 [20]: 3.6 nM; inhibition [4]: < 30%; IC50 [21]: 2.1 nM; AUC(0-inf) [14]: 613 ng·h/mL; half-life [15]: 0.3 h

SMILES | T1/2 [3] [h] | IC50 [5] [nM] | also measured
Cc1c(Cc2ccccc2S(=O)(=O)c2ccc(OC(F)(F)F)cc2)c2c(n1CC(=O)O)CCNC2=O | 1.3 | 6.6 | 
Cc1c(Cc2ccccc2-c2cccc3ccccc23)c2c(n1CC(=O)O)CCNC2=O |  | 480 | 
Cc1c(Cc2ccccc2S(=O)(=O)c2ccccc2F)c2c(n1CC(=O)O)CCNC2=O | 1.1 |  | 
Cc1c(Cc2ccc(S(=O)(=O)c3ccccc3)cc2)c2c(n1CC(=O)O)CCNC2=O |  | 170 | 
COc1ccc(S(=O)(=O)c2ccccc2)c(Cc2c3c(n(CC(=O)O)c2C)CCNC3=O)c1 | 4.2 |  | inhibition [1]: < 30%; inhibition [4]: < 30%
Cc1c(Cc2ccccc2Oc2ccccc2)c2c(n1CC(=O)O)CCNC2=O |  | 530 | 
Cc1c(Cc2ccc(S(=O)(=O)Cc3ccccc3)cc2)c2c(n1CC(=O)O)CCNC2=O | 0.9 | 3 | 
Cc1c(Cc2ccccc2S(=O)(=O)c2ccccc2)c2c(=O)n(C(F)F)ccc2n1CC(=O)O | 21 | 2.2 | inhibition [1]: < 30%; Papp A→B [6]: 0.4 ×10⁻⁶ cm/s; inhibition [4]: < 30%
Cc1c(Cc2ccccc2Cc2ccccc2)c2c(n1CC(=O)O)CCNC2=O |  | 120 | Papp A→B [6]: 0.2 ×10⁻⁶ cm/s
Cc1c(Cc2ccccc2S(=O)(=O)C2CCCCC2)c2c(n1CC(=O)O)CCNC2=O |  | 28 | 
Cc1c(Cc2ccccc2S(=O)(=O)c2ccccc2)c2c(n1CC(=O)O)CCN(C)C2=O | 5.3 | 7 | pKa [2]: 2.9
CNC(=O)c1ccc(Cc2c3c(n(CC(=O)O)c2C)CCNC3=O)c(S(=O)(=O)c2ccccc2)c1 | 4.6 | 10 | 
Cc1c(Cc2ccccc2Cn2ccnn2)c2c(n1CC(=O)O)CCNC2=O |  | 800 | 
Cc1c(Cc2ccccc2S(=O)(=O)N2CCOCC2)c2c(n1CC(=O)O)CCNC2=O | 0.6 | 22 | 
Cc1c(Cc2ccccc2S(=O)(=O)c2cccc(F)c2)c2c(n1CC(=O)O)CCNC2=O | 0.8 |  | inhibition [1]: < 30%; inhibition [4]: < 30%
Cc1c(Cc2ccccc2C(=O)c2ccccc2)c2c(n1CC(=O)O)CCNC2=O |  | 810 | 
Cc1c(Cc2ccc(S(C)(=O)=O)cc2)c2c(n1CC(=O)O)CCNC2=O |  | 900 | 
Cc1c(Cc2ccccc2S(=O)(=O)c2ccc(F)cc2)c2c(n1CC(=O)O)CC(C)(C)NC2=O | 18 |  | 
Cc1c(Cc2ccc(C(=O)O)cc2S(=O)(=O)c2ccccc2)c2c(n1CC(=O)O)CCNC2=O |  | 19 | 
Cc1c(Cc2ccccc2C(O)c2ccccc2)c2c(n1CC(=O)O)CCNC2=O (centres undefined) | 0.4 | 32 | pKa [2]: 3.1
COc1ccc(S(=O)(=O)c2ccccc2Cc2c3c(n(CC(=O)O)c2C)CCNC3=O)cc1 | 3.2 |  | 
Cc1c(Cc2ccccc2S(=O)(=O)c2ccccc2)c2c(Cl)nccc2n1CC(=O)O | 2 | 16 | 
